# Data: patent US9833492B2, “Combinations of a caspase inhibitor and an antiviral agent” (INSTITUT NATIONAL DE LA SANTE ET DE LA RECHERCHE MEDICALE …, priority 2007, dated 2017)
# Entries after “also recorded” stand apart in the source; their conditions may differ. Like-named read-outs stand apart in the source and are kept apart here. Where a SMILES comes first, the peptide text is derived from it. [ ]: non-standard residue; d: D form. The star is where a group is joined. Sta = CC(C)C[C@H](N)[C@@H](O)CC(=O)O; Isovaleryl = CC(C)CC(=O)*; Cbz = O=C(OCc1ccccc1)*; CH2F = FC*
# Legend:
# apoptosis = conditions: Caserta et al., 2003; cited from earlier work
# [1] = tested on: primary strains of the HIV-1 virus; assay: replication of primary HIV-1 strains in CD4+ T lymphocytes (p24); type: cell-based; conditions: 1 μM
# Description: FIG. 7: Graphic representation showing the effect of Q-VD-OPh on primary HIV-1 strains. In all cases (A, B and C), the CD4+ T lymphocytes were stimulated with concanavalin A and IL2 (stimulation being carried out before or during administration of Q-VD-OPh), […], immediately after infection and then 36 hours (d3) and 96 hours (d4) post-infection. A. Analysis by flow cytometry of viral replication in CD4+ T lymphocytes infected with the HIV-1Lai virus or with the serum of a chronic HIV+ patient (strain with X4/R5 dual tropism) and then cultivated in the absence or presence (+Q-VD) of Q-VD-OPh. The percentage of CD4+ cells infected by HIV was determined after intracellular labelling of the p24 viral antigen on the 5th day post-infection in the case of the HIV-Lai virus and on the 6th day post-infection in the case of the serum. […] B. Quantification of viral replication (on the left) and of cell death by measurement of mitochondrial depolarization (on the right) in CD4+ T lymphocytes infected with the serum of the chronic HIV+ patient. […]
# The CD4^+ cells were incubated for 2 hours at 37° C. in the presence of 10 ng/ml of HIV-1 virus of strain Lai or 50 ng/ml of primary strains of the HIV-1 virus. […] The HIV p24 antigen, the control for the viral load, was measured in the cell culture supernatants by an ELISA test (Abbott). […]
# [2] = tested on: Cytochrome c, Smac/Diablo and Endonuclease G in primary CD4+ T cells infected with HIV-Lai; assay: immunoblot of release of apoptogenic mitochondrial factors after subcellular fractionation; type: cell-based, human; conditions: 10 μM, day 5 after infection
# Description: FIG. 3: Immunoblot (Western blot) showing the effect of Q-VD-OPh on mitochondrial damage resulting from viral replication. Primary CD4+ T cells were infected with HIV-Lai and stimulated with a ConA/IL-2 cocktail and then treated or not treated with 10 μM of Q-VD-OPh (QVD) and/or 10 μM of pepstatin A (PA) immediately after stimulation and then 36 hours (day 3) and 96 hours (day 4) after infection. On the 5th day post-infection, the cells were fractionated into two parts: the membrane fraction and the cytosol fraction. The relocalization of the apoptogenic factors Cytochrome c (Cyt c), Smac/Diablo and Endonuclease G (EndoG) was then evaluated by immunotransfer (Western blot). The proteins Cytochrome c, Smac/Diablo and EndoG were detected using the antibodies indicated above. The proteins Cox IV and actin detected by means of the anti-subunit IV antibodies (clone 1068 Molecular Probe) and anti-actin antibodies (SIGMA), respectively, were used as the control for the fractionation procedure and as the control for the protein load of the gel, respectively. […]
# The cytosol and mitochondrial fractions were obtained by the subcellular fractionation technique based on selective permeabilization by digitonin according to Foghsgaard et al. {Foghsgaard, 2001}. […] The protein concentration of the cytosol and mitochondrial fractions was determined by the bicinchoninic acid (BCA) method (Bio-Rad). […]
# HIV-1 virus = conditions: cited from earlier work
# cells infected by HIV = cells infected by HIV (Petit et al., 2002), cited from earlier work
# [3] = tested on: lymphocytes stimulated by 1 μg/ml of anti-CD-3; assay: lymphocyte proliferation test with CFSE; type: cell-based, human
# Description: FIG. 13. Analysis by flow cytometry of lymphocyte proliferation after 4 and 5 days' stimulation by 1 μg/ml of anti-CD-3, in the presence or absence of HIV antiproteases or of QVD-OPH.
# The PBMCs are incubated in the presence of 1 μM of CFSE for 7 minutes at 37° C. The cells are taken up at 1·10^6/ml and then placed in culture and activated by an anti-CD3 at 1 μg/ml (Immunotech).
# A lymphocyte proliferation study was conducted with the fluorescent probe CFSE, which allows cell division to be monitored.
# [4] = tested on: cells stimulated by anti-CD3; type: cell-based; conditions: human, 1 day, 50 μM
# Description: FIG. 14. Analysis of the fall in the mitochondrial transmembrane potential (% Δφm low) by flow cytometry starting from cells stimulated by 1 μg/ml of anti-CD-3 in the presence or absence of different HIV antiproteases and of QVD-OPH.
# (§1) In order to evaluate the change in the transmembrane potential of the inner mitochondrial membrane, the cells were labelled with a fluorescent probe DIOC6 (Molecular Probes, Invitrogen), at a concentration of 40 nM, and incubated for 15 minutes at 37° C. Viral replication was evaluated by internal labelling of the p24 viral protein using an anti-p24-PE antibody (KC-57, Coulter Corp, Beckman).
# The cell toxicity was evaluated by analysis of the fall in the mitochondrial transmembrane potential (% Δφm low) using the probe DIOC6, by flow cytometry. The cells stimulated by anti-CD3 were analyzed in the same way on the day following activation.
# viral strain HIV-Lai = assay: Example 2: internal p24 viral protein by flow cytometry with different caspase inhibitors; type: cell-based, HIV-1; conditions: 10 μM
# Description: (§2) FIG. 11. Analysis by flow cytometry of the internal viral protein p24 (A) and of the fall in the mitochondrial transmembrane potential (% Δφm low; B) on the 5th (d5) and 7th (d7) day post-infection in primary CD4+ T cells infected by the strain HIV-Lai, after stimulation by Concanavalin A and IL-2 and in the presence or absence of 10 μM of different caspase inhibitors.
# as §1
# (§3) Primary CD4 T cells were infected by the viral strain HIV-Lai and then stimulated by ConA/IL-2 in the presence or absence of Q-VD-OPH, Q-DEVD-OPH (casp-3 inhibitor), Q-LEDH-OPH (caspase-9 inhibitor) and Q-IETD-OPH (caspase-8 inhibitor) at 10 μM for each of the inhibitors. On days 5 and 7 post-infection, the internal p24 viral protein is measured by flow cytometry after fixation and permeabilization of the CD4 T cells. […] Death was evaluated by analysis of the fall in the mitochondrial transmembrane potential (% Δφm low) using the probe DIOC6 by flow cytometry (FIG. 11B). […]
# [5] = tested on: Primary CD4 T cells infected by the viral strain HIV-Lai; assay: Example 2: death by fall in mitochondrial transmembrane potential in infected primary CD4 T cells; type: cell-based, human; conditions: 10 μM
# Description: as §2, §1, §3
# HIV viral proteins = assay: Example 2: immunoblot of HIV viral proteins in infected primary CD4 T cells; type: cell-based, HIV-1; conditions: versus control cultures
# Description: FIG. 12. Analysis by immunoblot of the quantity of HIV viral proteins produced from extracts of primary CD4 T cells infected by the strain HIV-Lai in the presence or absence of different caspase inhibitors.
# 20 μg extracts of total lysate prepared with 1% NP40 were boiled for 5 minutes in Laemmli buffer containing 2% SDS and 10% 2-β-mercaptoethanol, then deposited on 10-20% polyacrylamide gradient gels (Invitrogen). After transfer of the proteins, the immunoblots were incubated with the following primary antibodies: anticaspase-3, anticaspase-8 and anticaspase-9 (Cell Signaling), anti-PARP (Pharmingen) and anti-Tubulin (Santa-Cruz).
# Primary CD4 T cells were infected by the viral strain HIV-Lai and then stimulated by ConA/IL-2 in the presence or absence of Q-VD-OPH, Q-DEVD-OPH (casp-3 inhibitor), Q-LEDH-OPH (caspase-9 inhibitor) and Q-IETD-OPH (caspase-8 inhibitor) at 10 μM for each of the inhibitors. On days 5 and 7 post-infection, the internal p24 viral protein is measured by flow cytometry after fixation and permeabilization of the CD4 T cells. […] Death was evaluated by analysis of the fall in the mitochondrial transmembrane potential (% Δφm low) using the probe DIOC6 by flow cytometry (FIG. 11B). […] Extracts of primary CD4 T cells infected in the presence or absence of the different caspase inhibitors as well as QVD-OPH were analyzed by immunoblot for the HIV viral proteins (FIG. 12).
compound,measurement,setting,value
"COC(=O)CC(NC(=O)OC(C)(C)C)C(=O)CF [Boc-D-fmk, tert-butyloxycarbonyl-Asp(O-methyl)-fluoromethyl ketone]",inhibition of apoptosis,apoptosis,inhibits apoptosis in a dose-dependent manner
O=c1[nH]cnc2c1ncn2[C@H]1CC[C@@H](CO)O1 [ddl],replication of five primary HIV-1 isolates of R5 tropism,[1],strong inhibition of viral replication
CC(C)CC(=O)N[C@H](C(=O)N[C@H](C(=O)N[C@@H](CC(C)C)[C@@H](O)CC(=O)N[C@@H](C)C(=O)N[C@@H](CC(C)C)[C@@H](O)CC(=O)O)C(C)C)C(C)C [pepstatin A] (Isovaleryl-VV[Sta]A[Sta]-OH),"mitochondrial damage: apoptogenic factors Cytochrome C, Smac/Diablo and EndoG in the cytosol fraction",[2],no effect
"CC(C)[C@H](NC(=O)OCc1ccccc1)C(=O)N[C@@H](C)C(=O)N[C@@H](CC(=O)O)C(=O)CF [z-VAD-fmk, N-benzyloxycarbonyl-Val-Ala-Asp-fluoromethyl ketone] (Cbz-Val-Ala-Asp-CH2F)",inhibition of apoptosis,apoptosis,inhibits apoptosis in a dose-dependent manner
same,effect on viral replication,"HIV-1 virus; T-leukaemia cells (CEM) or PBMC exposed to HIV-1 (Chinnaiyan et al., 1997)",increasing viral replication
same,endogenous viral replication,"HIV-1 virus; activated PBMCs from HIV-1-positive asymptomatic patients (Chinnaiyan et al., 1997)",stimulating endogenous viral replication
same,inhibition of viral replication,"HIV-1 virus; in vitro (Gandhi et al., 1998; Petit et al., 2002)",nor does it inhibit viral replication; also recorded: did not enable viral replication to be inhibited
same,apoptotic phenotype (condensation and fragmentation of the nuclear chromatin),cells infected by HIV,prevents the apoptotic phenotype
same,"prevention of mitochondrial depolarization, apoptosis or cell death",cells infected by HIV,does not inhibit apoptosis
same,"prevention of mitochondrial depolarization, apoptosis or cell death",cells infected by HIV; listed as zVAD-kmk,does not prevent either mitochondrial depolarization or cell death
CC(C)(C)NC(=O)[C@@H]1C[C@@H]2CCCC[C@@H]2CN1C[C@@H](O)[C@H](Cc1ccccc1)NC(=O)[C@H](CC(N)=O)NC(=O)c1ccc2ccccc2n1 [Saquinavir],lymphocyte proliferation (CFSE),[3],block the proliferation
same,fall in Δφm,[4],70-80%
CC(C)(C)NC(=O)[C@@H]1CN(Cc2cccnc2)CCN1C[C@@H](O)C[C@@H](Cc1ccccc1)C(=O)N[C@H]1c2ccccc2C[C@H]1O [Indinavir],lymphocyte proliferation (CFSE),"[3]; 50 μM, after 4 and 5 days' stimulation",block the proliferation
same,fall in Δφm,[4],70-80%
Q-DEVD-OPH,inhibition of viral replication (p24),viral strain HIV-Lai; d5,weak effect
same,inhibition of viral replication (p24),viral strain HIV-Lai; d7,absence of protection
same,"death, fall in the mitochondrial transmembrane potential (% Δφm low)",[5],absence of effect
same,quantity of viral proteins produced,HIV viral proteins,slightly lower
